For one assay, the target named is EGFRΔ19del/T790M/C797S (Homo sapiens, UniProt P00533, T790M/C797S, form not given). Briefly: EGFR Δ19del/T790M/C797S kinase test (mobility variation analysis, Caliper EZ Reader). Type of assay: biochemical. Conditions: kinase enzymatic activity, Table 1. In outline:
(§1)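 Kinase pre-incubated with compound 10 minutes at room temperature, then ATP plus peptide substrate added; substrate conversion read by mobility shift after stop solution. Percent inhibition normalized to no-compound and no-enzyme controls; IC50 from variable-slope log(inhibitor) fit.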

A further assay concerns the target EGFR WT (Homo sapiens, UniProt P00533). Briefly: EGFR WT kinase test (mobility variation analysis, Caliper EZ Reader). It counts as biochemical. The conditions noted are these: kinase enzymatic activity, Table 1. The method in brief:
as §1

The target of a further assay is IGF1R (Homo sapiens, UniProt P08069). Briefly: IGF1R kinase test (mobility variation analysis, Caliper EZ Reader). It counts as biochemical. The conditions noted are these: kinase enzymatic activity, Table 1; read-out: EGFR IGF1R IC50. In outline: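 Kinase preincubated 10 min at room temperature with compound (10-point 3-fold series, top 3000 nM), then ATP and substrate added and reacted at room temperature. Substrate conversion read by mobility-shift (Caliper EZ Reader); % inhibition vs no-enzyme and no-compound controls fitted to variable-slope curve for IC50.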

The target in assay [1] is Ba/F3 cells with EGFR Δ19del/T790M/C797S mutation gene stably overexpressed (Homo sapiens, UniProt P00533, T790M/C797S, cells depend on it, form not given). The experiment in a line: Ba/F3-Δ19del/T790M/C797S cell proliferation assay (CellTiter Glo, 72 hours). Type of assay: cell-based. Conditions: Table 2, read-out: EGFR Δ19del/T790M/C797S IC50. In outline:
(§2)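 Ba/F3 cells stably overexpressing wild-type EGFR or EGFR Δ19del/T790M/C797S were seeded at 2000 cells/well and incubated 72 h with compound. Viability was read by CellTiter-Glo luminescence, and IC50 came from a four-parameter logistic fit of signal against log concentration.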
For orientation: Cellular ATP, detected with luciferase, serves as a proxy for viable cell number.

The target in assay [2] is Ba/F3-EGFR wild-type cell line (Homo sapiens, UniProt P00533). Briefly: Ba/F3-EGFR wild-type cell proliferation assay (CellTiter Glo, 72 hours). Type of assay: cell-based. Conditions: Table 2, read-out: EGFR WT IC50. The method in brief: as §2
Ba/F3-EGFR wild-type cell line, sequence (P00533 whole entry, change not shown): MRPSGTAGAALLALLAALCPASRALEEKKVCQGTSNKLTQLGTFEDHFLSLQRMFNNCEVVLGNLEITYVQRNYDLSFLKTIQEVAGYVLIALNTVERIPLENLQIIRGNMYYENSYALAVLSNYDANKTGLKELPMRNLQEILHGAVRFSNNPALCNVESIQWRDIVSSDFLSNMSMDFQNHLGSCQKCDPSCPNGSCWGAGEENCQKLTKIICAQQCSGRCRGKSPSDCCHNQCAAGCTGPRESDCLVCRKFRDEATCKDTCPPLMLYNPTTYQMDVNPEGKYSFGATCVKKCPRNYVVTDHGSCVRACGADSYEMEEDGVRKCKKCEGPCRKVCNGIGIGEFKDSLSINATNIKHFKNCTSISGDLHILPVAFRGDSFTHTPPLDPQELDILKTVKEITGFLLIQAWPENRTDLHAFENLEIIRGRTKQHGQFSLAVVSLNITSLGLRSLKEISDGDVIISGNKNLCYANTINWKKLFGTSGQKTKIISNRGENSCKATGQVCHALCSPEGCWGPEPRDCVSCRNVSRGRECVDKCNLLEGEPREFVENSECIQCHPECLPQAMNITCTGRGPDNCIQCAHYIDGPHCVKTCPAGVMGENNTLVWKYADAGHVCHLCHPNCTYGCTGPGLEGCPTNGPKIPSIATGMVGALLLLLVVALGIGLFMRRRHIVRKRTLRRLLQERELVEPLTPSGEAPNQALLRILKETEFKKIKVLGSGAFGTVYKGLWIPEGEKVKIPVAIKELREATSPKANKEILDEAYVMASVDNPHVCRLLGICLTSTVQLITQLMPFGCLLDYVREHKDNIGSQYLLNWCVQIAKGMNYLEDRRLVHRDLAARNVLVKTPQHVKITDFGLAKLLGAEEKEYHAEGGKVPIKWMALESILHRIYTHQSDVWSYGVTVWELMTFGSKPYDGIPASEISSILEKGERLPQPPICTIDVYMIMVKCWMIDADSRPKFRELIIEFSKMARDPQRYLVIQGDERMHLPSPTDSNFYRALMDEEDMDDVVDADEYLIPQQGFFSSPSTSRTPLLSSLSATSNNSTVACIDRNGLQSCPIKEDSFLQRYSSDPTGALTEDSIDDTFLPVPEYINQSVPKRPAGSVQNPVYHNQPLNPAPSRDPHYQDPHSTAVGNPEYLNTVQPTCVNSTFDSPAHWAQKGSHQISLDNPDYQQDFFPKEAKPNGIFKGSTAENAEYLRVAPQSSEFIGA
The subject of the next assay is A431. The experiment in a line: A431 cell proliferation assay (CellTiter Glo, 72 hours). It counts as cell-based. Conditions: cell proliferation, A431, 72 hours, Table 2, read-out: A431 IC50. In outline: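 A431 cells (2000/well) exposed 72 h to compound at 1000 nM down to 0.2 nM in 3-fold steps, 0.1% DMSO (0.5% for some series). Viability by CellTiter-Glo luminescence; IC50 by four-parameter nonlinear regression.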

SMILES strings stand for the structures. Like-named read-outs stand apart in the source and are kept apart here.

EGFR WT, sequence (P00533 25-1210): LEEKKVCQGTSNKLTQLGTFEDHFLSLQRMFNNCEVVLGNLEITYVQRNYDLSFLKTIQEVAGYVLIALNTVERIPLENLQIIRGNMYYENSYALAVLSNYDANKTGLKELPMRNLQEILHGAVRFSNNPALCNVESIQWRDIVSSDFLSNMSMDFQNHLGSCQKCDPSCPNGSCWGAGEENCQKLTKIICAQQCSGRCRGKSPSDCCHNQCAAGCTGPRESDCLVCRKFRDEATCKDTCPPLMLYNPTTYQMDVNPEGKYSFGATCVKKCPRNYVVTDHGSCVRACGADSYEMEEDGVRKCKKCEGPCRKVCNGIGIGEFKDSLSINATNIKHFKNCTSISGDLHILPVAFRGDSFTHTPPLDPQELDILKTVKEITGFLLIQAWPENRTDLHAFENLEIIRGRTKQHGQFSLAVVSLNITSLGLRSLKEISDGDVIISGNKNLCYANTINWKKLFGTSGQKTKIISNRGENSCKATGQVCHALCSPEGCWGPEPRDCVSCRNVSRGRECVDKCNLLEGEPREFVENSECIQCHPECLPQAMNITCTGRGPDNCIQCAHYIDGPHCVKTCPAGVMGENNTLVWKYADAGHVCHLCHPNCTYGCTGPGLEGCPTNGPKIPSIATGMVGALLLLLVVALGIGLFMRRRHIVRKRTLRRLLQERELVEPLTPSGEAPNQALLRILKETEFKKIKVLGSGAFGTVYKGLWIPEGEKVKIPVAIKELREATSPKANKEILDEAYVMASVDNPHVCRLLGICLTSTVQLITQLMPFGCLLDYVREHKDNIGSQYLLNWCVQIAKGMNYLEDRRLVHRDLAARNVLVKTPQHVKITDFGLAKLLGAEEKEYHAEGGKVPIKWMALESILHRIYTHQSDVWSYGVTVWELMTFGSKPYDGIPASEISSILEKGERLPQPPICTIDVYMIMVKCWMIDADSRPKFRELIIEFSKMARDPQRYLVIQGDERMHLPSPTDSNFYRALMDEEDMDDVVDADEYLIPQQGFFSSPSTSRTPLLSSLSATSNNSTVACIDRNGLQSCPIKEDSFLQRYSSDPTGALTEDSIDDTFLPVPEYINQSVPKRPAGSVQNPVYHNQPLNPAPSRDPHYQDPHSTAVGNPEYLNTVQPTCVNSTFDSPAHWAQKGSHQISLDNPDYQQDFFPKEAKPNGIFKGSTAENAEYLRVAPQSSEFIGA
EGFRΔ19del/T790M/C797S, sequence (P00533 with tags, fused parts or gaps DEL746-750/T790M/C797S, form open): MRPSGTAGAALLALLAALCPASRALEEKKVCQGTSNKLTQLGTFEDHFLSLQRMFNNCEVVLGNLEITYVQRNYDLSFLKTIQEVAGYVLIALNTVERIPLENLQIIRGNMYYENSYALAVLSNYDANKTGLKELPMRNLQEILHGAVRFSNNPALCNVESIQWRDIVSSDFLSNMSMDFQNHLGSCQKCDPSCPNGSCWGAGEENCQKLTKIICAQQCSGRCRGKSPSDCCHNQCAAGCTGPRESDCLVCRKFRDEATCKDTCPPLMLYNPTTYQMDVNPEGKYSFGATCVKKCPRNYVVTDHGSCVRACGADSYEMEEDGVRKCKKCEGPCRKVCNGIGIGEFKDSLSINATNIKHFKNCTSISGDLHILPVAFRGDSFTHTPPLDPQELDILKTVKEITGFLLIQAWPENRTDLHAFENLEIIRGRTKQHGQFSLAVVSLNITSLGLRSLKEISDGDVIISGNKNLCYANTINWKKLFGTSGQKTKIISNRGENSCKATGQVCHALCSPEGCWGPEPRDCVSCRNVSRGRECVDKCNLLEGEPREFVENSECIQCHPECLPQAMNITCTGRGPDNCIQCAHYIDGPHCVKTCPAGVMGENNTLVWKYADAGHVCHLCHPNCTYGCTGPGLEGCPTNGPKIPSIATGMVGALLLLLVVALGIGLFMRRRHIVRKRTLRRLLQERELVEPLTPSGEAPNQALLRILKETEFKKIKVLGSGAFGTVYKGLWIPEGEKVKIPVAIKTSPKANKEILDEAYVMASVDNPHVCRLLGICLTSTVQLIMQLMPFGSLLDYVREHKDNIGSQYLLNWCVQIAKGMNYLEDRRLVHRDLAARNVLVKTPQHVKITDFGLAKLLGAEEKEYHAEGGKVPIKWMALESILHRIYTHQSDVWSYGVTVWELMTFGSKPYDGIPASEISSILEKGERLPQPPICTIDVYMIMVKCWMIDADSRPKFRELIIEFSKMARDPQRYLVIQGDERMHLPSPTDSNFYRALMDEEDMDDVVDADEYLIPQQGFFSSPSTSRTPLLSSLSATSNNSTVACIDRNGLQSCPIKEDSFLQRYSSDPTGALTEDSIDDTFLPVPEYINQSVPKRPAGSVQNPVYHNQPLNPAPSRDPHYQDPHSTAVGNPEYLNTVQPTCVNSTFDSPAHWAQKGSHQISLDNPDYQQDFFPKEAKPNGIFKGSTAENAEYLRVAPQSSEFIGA
Ba/F3 cells with EGFR Δ19del/T790M/C797S mutation gene stably overexpressed, sequence (P00533 with tags, fused parts or gaps DEL746-750/T790M/C797S, form open): as above

`CCc1cc(Nc2ncc(Br)c(Nc3ccc(-c4cnn(CC)n4)cc3P(C)(C)=O)n2)c(OC)cc1N1CCC(N2CCN(C)CC2)CC1` [Compound K-062, (2-((5-Bromo-2-((5-ethyl-2-methoxy-4-(4-(4-methylpiperazin-1-yl)piperidin-1-yl)phenyl)amino)pyrimidin-4-yl)amino)-5-(2-ethyl-2H-1,2,3-triazol-4-yl)phenyl)dimethylphosphine oxide]: the IC50 was 0.0002 µM against EGFRΔ19del/T790M/C797S; 0.018 µM against EGFR WT; 0.126 µM on IGF1R; 1.8 µM with A431 (Homo sapiens, A-431, 72 h). Moreover, the figures for the GI50 in assay [1] and in assay [2] were 0.0239 µM and 0.459 µM, respectively.
As to `CCc1cc(Nc2ncc(Br)c(Nc3ccc(-c4cc(C)n(C)n4)cc3P(C)(C)=O)n2)c(OC)cc1N1CCC(N2CCN(C)CC2)CC1` [Compound K-066], the IC50 is 0.0011 µM on EGFRΔ19del/T790M/C797S; 0.0139 µM at EGFR WT; 0.134 µM at IGF1R; 2.3 µM in the assay on A431 (Homo sapiens, A-431, 72 h). Moreover, the GI50 in assay [1] is 0.0106 µM; in assay [2] it was 0.105 µM.
On to `CCc1cc(Nc2ncc(Br)c(Nc3ccc(-n4cc(C)cn4)cc3P(C)(C)=O)n2)c(OC)cc1N1CCC(N2CCN(C)CC2)CC1` [Compound K-069, (2-((5-Bromo-2-((5-ethyl-2-methoxy-4-(4-(4-methylpiperazin-1-yl)piperidin-1-yl)phenyl)amino)pyrimidin-4-yl)amino)-5-(4-methyl-1H-pyrazol-1-yl)phenyl)dimethylphosphine oxide], for which the concentration for half-maximal inhibition (IC50) against EGFRΔ19del/T790M/C797S amounted to 0.00067 µM; on EGFR WT, 0.0267 µM; on IGF1R, 0.219 µM; in the assay on A431, 1.61 µM. For the same molecule, the GI50 is 0.0374 µM in assay [1] and 0.355 µM in assay [2].
As for `CCc1cc(Nc2ncc(Br)c(Nc3ccc(-c4ccc(C)cn4)cc3P(C)(C)=O)n2)c(OC)cc1N1CCC(N2CCN(C)CC2)CC1` [Compound K-071, (2-((5-Bromo-2-((5-ethyl-2-methoxy-4-(4-(4-methylpiperazin-1-yl)piperidin-1-yl)phenyl)amino)pyrimidin-4-yl)amino)-5-(5-methylpyridin-2-yl)phenyl)dimethylphosphine oxide], the IC50 is 0.0003 µM against EGFRΔ19del/T790M/C797S, 0.0294 µM against EGFR WT, 0.18 µM at IGF1R and 2.54 µM in the assay with A431. Besides, the GI50 in assay [1] is 0.021 µM; in assay [2], 0.218 µM.
For `CCc1cc(Nc2ncc(Br)c(Nc3ccc(-c4ccc(OC)s4)cc3P(C)(C)=O)n2)c(OC)cc1N1CCC(N2CCN(C)CC2)CC1` [Compound K-072, (2-((5-Bromo-2-((5-ethyl-2-methoxy-4-(4-(4-methylpiperazin-1-yl)piperidin-1-yl)phenyl)amino)pyrimidin-4-yl)amino)-5-(5-methoxythiophen-2-yl)phenyl)dimethylphosphine oxide], the IC50 against EGFRΔ19del/T790M/C797S came out at 0.00096 µM; against EGFR WT it was 0.012 µM; at IGF1R it was 0.15 µM; with A431 (Homo sapiens, A-431, 72 h), 1.93 µM. Besides, the values for the GI50 in assay [1] and in assay [2] were 0.0503 µM and 0.446 µM, respectively.
As for `CCc1cc(Nc2ncc(Br)c(Nc3ccc(-c4nc(Cl)cs4)cc3P(C)(C)=O)n2)c(OC)cc1N1CCC(N2CCN(C)CC2)CC1` [Compound K-073, (2-((5-Bromo-2-((5-ethyl-2-methoxy-4-(4-(4-methylpiperazin-1-yl)piperidin-1-yl)phenyl)amino)pyrimidin-4-yl)amino)-5-(4-chlorothiazol-2-yl)phenyl)dimethylphosphine oxide], the IC50 against EGFRΔ19del/T790M/C797S came to 0.0003 µM; against EGFR WT, 0.0222 µM; at IGF1R, 0.127 µM; in the assay on A431 (Homo sapiens, A-431, 72 h), 1.51 µM. For the same molecule, the GI50 was determined as 0.0277 µM in assay [1] and 0.407 µM in assay [2].

One may read the IC50 as the concentration that inhibits the measured activity by half.

These data come from patent publication US20220402948A1, “EGFR INHIBITOR, COMPOSITION AND PREPARATION METHOD THEREFOR” (BETTA PHARMACEUTICALS CO., LTD., priority 2019, published 2022).
